Experimental findings from patent US9133140B2, “Cycloalkylamne derivatives” (Daiichi Sankyo Company, Limited, priority 2008, dated 2015) are described below.

Where a name gives a salt, the structure may show the parent alone. Read-outs that look alike come from different tables or passages of the source.

One assay has as its target T1, human CaSR (Homo sapiens, UniProt P41180).
T1 construct: TT cells are cell lines that express human CaSR; endogenous in cells; host or cells: TT cells (human medullary thyroid carcinoma cell line)
T1 sequence (P41180 20-1078): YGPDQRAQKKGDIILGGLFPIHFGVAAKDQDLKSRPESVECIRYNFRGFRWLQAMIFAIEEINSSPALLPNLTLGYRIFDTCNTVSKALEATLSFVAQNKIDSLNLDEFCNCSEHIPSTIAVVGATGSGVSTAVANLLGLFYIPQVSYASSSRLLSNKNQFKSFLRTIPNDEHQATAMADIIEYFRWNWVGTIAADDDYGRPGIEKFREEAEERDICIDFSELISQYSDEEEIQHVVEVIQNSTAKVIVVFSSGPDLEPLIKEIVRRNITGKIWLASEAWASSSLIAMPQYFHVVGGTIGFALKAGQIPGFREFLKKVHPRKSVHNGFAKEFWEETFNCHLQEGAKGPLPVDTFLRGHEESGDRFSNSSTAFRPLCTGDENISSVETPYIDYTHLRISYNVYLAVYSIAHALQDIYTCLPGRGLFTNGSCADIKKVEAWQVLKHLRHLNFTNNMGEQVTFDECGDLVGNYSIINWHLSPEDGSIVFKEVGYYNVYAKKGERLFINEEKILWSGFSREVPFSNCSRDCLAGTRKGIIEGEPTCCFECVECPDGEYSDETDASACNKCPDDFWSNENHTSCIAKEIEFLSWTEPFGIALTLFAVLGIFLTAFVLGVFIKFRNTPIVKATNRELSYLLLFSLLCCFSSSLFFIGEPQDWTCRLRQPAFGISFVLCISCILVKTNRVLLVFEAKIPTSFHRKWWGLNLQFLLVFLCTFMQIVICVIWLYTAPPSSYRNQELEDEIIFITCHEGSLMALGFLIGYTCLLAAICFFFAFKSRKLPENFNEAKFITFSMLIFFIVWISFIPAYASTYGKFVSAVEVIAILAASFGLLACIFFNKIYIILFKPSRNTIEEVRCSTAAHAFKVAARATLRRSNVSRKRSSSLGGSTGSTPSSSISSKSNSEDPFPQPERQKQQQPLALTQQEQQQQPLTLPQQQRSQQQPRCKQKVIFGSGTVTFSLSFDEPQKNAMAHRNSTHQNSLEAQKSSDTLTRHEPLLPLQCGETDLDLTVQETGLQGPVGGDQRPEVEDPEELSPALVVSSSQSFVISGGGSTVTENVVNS
Briefly: Human CaSR activity measurement test (intracellular calcium in TT cells). To be noted: [EC50 of test compound]/[EC50 of Compound A], intracellular calcium fluorescence. Format: cell-based. The protocol: It is reported that human medullary thyroid carcinoma cell lines TT cells are cell lines that express human CaSR, and when CaSR is activated by extracellular calcium ions or the like, intracellular calcium ion concentration increases (Endocrinology 137: 3842-3848, 1996). Accordingly, an activating action of the test compounds with respect to human CaSR was evaluated by using the change in intracellular calcium concentration of TT cells as an indicator. TT cells were inoculated onto a black well/clear bottom 96 well plate (poly-D-lysine coat: manufactured by BD biosciences), and were cultured for approximately 24 hours in a F-12 Nutrient Mixture (Kaighn's modification) culture media containing 10% calf serum and 0.5% antibiotic antimycotic. […] Then, the plate was allowed to stand for 1 hour at 37° C. Subsequently, the above-mentioned plate was placed onto FlexStation (manufactured by Molecular Device) or FlexStation 3 (manufactured by Molecular Device), and fluorescence intensity before and after treatment with the test compound dissolved in a buffer for measurement (126 mM NaCl, 4 mM KCl, 1 mM MgCl2, 20 mM HEPES (pH 7.4), 5.6 mM glucose, 2 mM CaCl2) was measured. […] Nagano, Pharmacol. […] WO 1996/12697) as a comparative compound, by conducting a similar procedure. From the following equation, the human CaSR activity of each of the test compounds was calculated as the relative activity with respect to Compound A. Relative activity with respect to Compound A=[EC50 of test compound]/[EC50 of Compound A]

Assay [1] concerns calcium ion concentration in the blood. Briefly: Measurement test for concentration of parathyroid hormone and calcium ion in rat blood. Format: in vivo. As to conditions: read-out: reduction of calcium concentration in the blood. The protocol:
Three male SD rats (manufactured by Japan SLC, Inc.) were orally administered with the test compound, and effects on the concentration of parathyroid hormone (PTH) in the blood and concentration of the calcium ion in the blood were studied.
The test compound was administered by dissolving or suspending it in a 0.5% methyl cellulose 400 (MC) solution or 0.5% MC solution containing 10% of ethanol. (In addition, Compound A used in Test Example 1 was administered as a MC suspension by dosage of 30 mg/kg, and was studied as a comparative example.) Blood was collected from the jugular vein under anesthesia with halothane or isoflurane, before administration of the test compound, and 2, 4, 6 or 8 and 24 hours after administration. Calcium ion concentration in the blood was measured using cartridge EG7+(manufactured by Fuso Chemical Co., Ltd.) and i-STAT 300F (manufactured by Fuso Chemical Co., Ltd.). In addition, plasma intact PTH concentration was measured using Rat intact PTH ELISA kit (manufactured by Immutopics).
The transition of calcium ion concentration in the blood over time from before administration to 24 hours after administration of each of the test compounds was plotted, and the decrease in calcium ion concentration in the blood from the value before administration was calculated as an area value.

The mark [2] stands for this setting: male SD rats, oral, 4 hours after administration.
The mark [3] stands for this setting: male SD rats, oral, 10 mg/kg, 4 hours after administration.

In the case of `C[C@@H](N[C@H]1CC[C@@H](c2cccc(CC(=O)O)c2)C1)c1ccc(F)c2ccccc12` [Example 24, {3-[(1R,3S)-3-{[(1R)-1-(4-Fluoronaphthalen-1-yl)ethyl]amino}cyclopentyl]phenyl}acetic acid hydrochloride], on human CaSR, the “Relative activity with respect to Compound A” value (shortened to “Relative activity”) came to 0.30. Moreover, in assay [1] (setting [2]), the inhibition in vivo at 0.3 mg/kg is at least 20%. Besides, in assay [1] (setting [3]), the inhibition in vivo at 10 mg/kg was at least 30%.

For `Cc1cc([C@@H]2CC[C@H](N[C@H](C)c3cccc4ccccc34)C2)ccc1OCC(=O)O` [Example 32, {2-Methyl-4-[(1R,3S)-3-{[(1R)-1-(naphthalen-1-yl)ethyl]amino}cyclopentyl]phenoxy}acetic acid hydrochloride], the “Relative activity” value at human CaSR was 0.26. In the case of `C[C@@H](N[C@H]1CC[C@@H](c2ccc(OCC(=O)O)cc2)C1)c1cccc2ccccc12` [Example 10, {4-[(1R,3S)-3-{[(1R)-1-(Naphthalen-1-yl)ethyl]amino}cyclopentyl]phenoxy}acetic acid hydrochloride], on human CaSR, the “Relative activity” value was 0.28. For the same molecule, the inhibition in vivo at 10 mg/kg in assay [1] (setting [3]) was at least 30%. Consider `C[C@@H](N[C@H]1CC[C@H](c2ccc(OCC(=O)O)cc2)C1)c1ccc(F)c2ccccc12` [Example 28, {4-[(1S,3S)-3-{[(1R)-1-(4-Fluoronaphthalen-1-yl)ethyl]amino}cyclopentyl]phenoxy}acetic acid], for which the “Relative activity” value on human CaSR stood at 0.17. Besides, the inhibition in vivo at 0.3 mg/kg in assay [1] (setting [2]) was at least 20%. On to `C[C@@H](N[C@H]1CC[C@@H](c2cccc(CC(=O)O)c2)C1)c1cccc2ccccc12` [Example 7, {3-[(1R,3S)-3-{[(1R)-1-(Naphthalen-1-yl)ethyl]amino}cyclopentyl]phenyl}acetic acid hydrochloride], for which the “Relative activity” value at human CaSR turned out to be 0.26. Also, the inhibition in vivo at 10 mg/kg in assay [1] (setting [3]) was at least 30%. `C[C@@H](N[C@H]1CC[C@@H](c2ccc(OCC(=O)O)cc2)C1)c1ccc(F)c2cc(F)ccc12` [Example 23, {4-[(1R,3S)-3-{[(1R)-1-(4,6-Difluoronaphthalen-1-yl)ethyl]amino}cyclopentyl]phenoxy}acetic acid]: the inhibition in vivo at 0.3 mg/kg in assay [1] (setting [2]) was at least 20%. Take `C[C@@H](N[C@H]1CC[C@@H](c2ccc(OCc3nn[nH]n3)cc2)C1)c1cccc2ccccc12` [Example 38, (1S,3R)-N-[(1R)-1-(Naphthalen-1-yl)ethyl]-3-[4-(2H-tetrazol-5-ylmethoxy)phenyl]cyclopentanamine hydrochloride]: on human CaSR, the “Relative activity” value worked out at 0.13. Turning to `C[C@@H](NCCCc1cccc(C(F)(F)F)c1)c1cccc2ccccc12` [Compound A, ((R)-1-naphthalen-1-yl-ethyl)-[3-(3-trifluoromethyl-phenyl)-propyl]-amine monohydrochloride, reference compound], the inhibition in vivo at 30 mg/kg in assay [1] (male SD rats, oral, 30 mg/kg, 4 hours after administration) lay in the range of 15 to 30%. `C[C@@H](N[C@H]1CC[C@@H](c2ccc(C(=O)NCC(=O)O)cc2)C1)c1cccc2ccccc12` [Example 5, N-{4-[(1R,3S)-3-{[(1R)-1-(Naphthalen-1-yl)ethyl]amino}cyclopentyl]benzoylglycine hydrochloride]: the “Relative activity” value on human CaSR worked out at 0.52. On the same count and under the same terms, under `C[C@@H](NC1CC[C@H](c2ccc(-c3nn[nH]n3)cc2)C1)c1cccc2ccccc12` (stereo partly drawn) [Example 4, (3S)-N-[(1R)-1-(Naphthalen-1-yl)ethyl]-3-[4-(2H-tetrazol-5-yl)phenyl]cyclopentanamine hydrochloride] stands 0.33; under `C[C@@H](N[C@H]1CC[C@@H](c2cccc(-c3nn[nH]n3)c2)C1)c1cccc2ccccc12` [Example 1, (1S,3R)-N-[(1R)-1-(Naphthalen-1-yl)ethyl]-3-[3-(2H-tetrazol-5-yl)phenyl]cyclopentanamine hydrochloride], 0.30; under `C[C@@H](N[C@H]1CC[C@@H](c2ccc(-c3nn[nH]n3)cc2)C1)c1ccc(F)c2ccccc12` [Example 26, (1S,3R)-N-[(1R)-1-(4-Fluoronaphthalen-1-yl)ethyl]-3-[4-(2H-tetrazol-5-yl)phenyl]cyclopentanamine hydrochloride], 0.27. The same measure, in the same setting: under `C[C@@H](N[C@H]1CC[C@H](c2ccc(CCC(=O)O)cc2)C1)c1cccc2ccccc12` [Example 29, 3-{4-[(1S,3S)-3-[(1R)-1-(4-Naphthalen-1-yl)ethyl]amino}cyclopentyl]phenyl}propanoic acid hydrochloride] stands 0.30; under `Cc1ccc([C@@H](C)NC2CC[C@@H](c3ccc(OCC(=O)O)cc3)C2)c2ccccc12` (stereo partly drawn) [Example 22, {4-[(1R)-3-{[(1R)-1-(4-Methylnaphthalen-1-yl)ethyl]amino}cyclopentyl]phenoxy}acetic acid], 0.42; under `C[C@@H](N[C@H]1CC[C@@H](c2ccc(CCC(=O)O)cc2)C1)c1cccc2ccccc12` [Example 9, 3-{4-(1R,3S)-3-{[(1R)-1-(Naphthalen-1-yl)ethyl]amino}cyclopentyl]phenyl}propanoic acid hydrochloride], 0.38. `C[C@@H](N[C@H]1CC[C@@H](c2cccc(OCC(=O)O)c2)C1)c1cccc2ccccc12` [Example 12, {3-[(1R,3S)-3-{[(1R)-1-(Naphthalen-1-yl)ethyl]amino}cyclopentyl]phenoxy}acetic acid hydrochloride]: at human CaSR, the “Relative activity” value worked out at 0.36. On the same count and under the same terms, the result for `C[C@@H](N[C@H]1CC[C@@H](c2ccc(OCc3nn[nH]n3)cc2)C1)c1ccc(F)c2ccccc12` [Example 39, (1S,3R)-N-[(1R)-1-(4-Fluoronaphthalen-1-yl)ethyl]-3-[4-(2H-tetrazol-5-ylmethoxy)phenyl]cyclopentanamine hydrochloride] reads 0.07. For `C[C@@H](N[C@H]1CC[C@@H](c2ccc(NCC(=O)O)cc2)C1)c1ccc(F)c2ccccc12` [Example 35, N-{4-[(1R,3S)-3-{[(1R)-1-(4-Fluoronaphthalen-1-yl)ethyl]amino}cyclopentyl]phenyl}glycine 0.3 hydrochloride], the inhibition in vivo at 10 mg/kg in assay [1] (po, 4 h) is at least 30%. For the molecule `C[C@@H](N[C@H]1CC[C@@H](c2ccc(SCC(=O)O)cc2)C1)c1ccc(F)c2ccccc12` [Example 37, ({4-[(1R,3S)-3-{[(1R)-1-(4-Fluoronaphthalen-1-yl)ethyl]amino}cyclopentyl]phenyl}thio)acetic acid hydrochloride], the “Relative activity” value on human CaSR is recorded as 0.10.
